Assay results taken from patent US20150018305A1, “SIRTUIN INDUCER, TISSUE REPAIRING AGENT, HEPATOCYTE GROWTH FACTOR INDUCER, TISSUE HOMEOSTASIS MAINTENANCE AGENT, AND TLR4 AGONIST, HAVING HYALURONIC ACID FRAGMENT AS ACTIVE INGREDIENT” (HYALURONAN RESEARCH INSTITUTE, INC., priority 2012, published 2015).

Test system: human sirtuin proteins (SIRT1)
Test: Sirtuin induction in human epidermal keratinocytes, anti human SIRT1 antibody staining (Test Example 1)
Format: cell-based
Conditions: 24 hours
Description: Human epidermal keratinocytes (normal human keratinocytes from a person) were cultured and prepared. Following culture of the human keratinocytes in a prolonged culture growth medium (EpiLife-KG2) at 37° C. under 5% CO2, the cells were recovered by trypsin treatment. The cells were then inoculated into a 96-well plate (100 μL per well) and cultured overnight. Following completion of culture, the culture broth from each well was transferred to a culture medium (keratinocyte SFM made by Gibco) to which no hyaluronic acid fragments were added, or to the same culture medium to which a hyaluronic acid fragment (4mer) was added to a final concentration of 0.01 ng/ml, 0.1 ng/ml, 1.0 ng/ml, or 10 ng/ml, and cultured for 24 hours.
After 24 hours had passed, the cells in each well were stained with the anti human SIRT1 antibody. The anti human SIRT1 antibody is an antibody that recognizes and stains human sirtuin proteins. The stained cells were observed under a microscope (made by Nikon), taking photographs of cell morphology and stained images of cells.

## CC(=O)N[C@H]1[C@H](O[C@H]2[C@H](O)[C@@H](O)[C@H](O[C@H]3[C@H](O)[C@@H](CO)OC(O)[C@@H]3NC(C)=O)O[C@@H]2C(=O)O)O[C@H](CO)[C@@H](O)[C@@H]1O[C@@H]1O[C@H](C(=O)O)[C@@H](O)[C@H](O)[C@H]1O (stereo partly shown) [4mer, GlcA(-GlcNAc-GlcA)1-GlcNAc]
0.01 ng/ml
  Average staining intensity: 6.33
0.1 ng/ml
  Average staining intensity: 6.35
1.0 ng/ml
  Average staining intensity: 6.52
10 ng/ml
  Average staining intensity: 6.54
